Laboratory results from ChEMBL document CHEMBL1201862, “PubChem BioAssay data set” (2004).
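48-hour exposure; five concentrations; linearly interpolated endpoints. At the GI50, growth is halved.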 Active and inactive are the calls of the source. Cut-off read from the data, not from the text of the source: active = GI50 up to about 1.1 µM and inactive = higher. Starred links: 1 amine or outer side, 2 acyl side, 3 side chain; linkers in the order of their positions; H or OH if unused. Positions of bridges follow the written chain, without caps; N, C: chain ends. Non-standard residues stand in square brackets, D forms with d. Residues, ends and D or L forms follow the SMILES beside them. Chains are numbered I, II in the order given. Actinocin(1to9) = Cc1c2oc3c(C)ccc(C(=O)[*:2])c3nc-2c(C(=O)[*:1])c(N)c1=O; NMeV = CN[CH](C(=O)O)C(C)C; Sar = CNCC(=O)O

Columns and labels:
Experiment in all cases: inhibition of tumour cell growth, NCI panel, 48 h
[1] = tested on: NCI-H226
[2] = tested on: HOP-92
[3] = tested on: HCC 2998
[4] = tested on: OVCAR-3
[5] = tested on: LOX IMVI
[6] = tested on: MDA-MB-231
[7] = tested on: HT-29
[8] = tested on: UACC-257
[9] = tested on: NCI-H460
[10] = tested on: Malme-3M
[11] = tested on: SN12C
[12] = tested on: SK-OV-3
[13] = tested on: NCI-H522
[14] = tested on: CAKI-1
[15] = tested on: UO-31
[16] = tested on: MDA-MB-435
[17] = tested on: SF-268
[18] = tested on: RXF 393
[19] = tested on: Hs-578T
[20] = tested on: MCF7

SMILES | GI50 [1] | GI50 [2] | GI50 [3] | GI50 [4] | GI50 [5] | GI50 [6] | GI50 [7] | GI50 [8] | GI50 [9] | GI50 [10] | GI50 [11] | GI50 [12] | GI50 [13] | GI50 [14] | GI50 [15] | GI50 [16] | GI50 [17] | GI50 [18] | GI50 [19] | GI50 [20]
COc1ccc(CC2c3cc(OC)c(OC)c(OC)c3CC[N+]2(C)C)cc1Oc1ccc(CC2c3cc4c(c(OC)c3CCN2C)OCO4)cc1 (stereo not given) | > 100 µM (inactive) | > 100 µM (inactive) | > 100 µM (inactive) | > 100 µM (inactive) | > 100 µM (inactive) | > 100 µM (inactive) | > 100 µM (inactive) | > 100 µM (inactive) | 92 µM (inactive) | > 100 µM (inactive) | > 100 µM (inactive) | > 100 µM (inactive) | 97.7 µM (inactive) | > 100 µM (inactive) | > 100 µM (inactive) | > 100 µM (inactive) | > 100 µM (inactive) | > 100 µM (inactive) | > 100 µM (inactive) | > 100 µM (inactive)
O=C(NC(=S)Nc1ccc2c(c1)Sc1ccccc1O2)c1ccccc1 | 53.7 µM (inactive) | 24.2 µM (inactive) | 7.46 µM (inactive) | 35.7 µM (inactive) | 39.1 µM (inactive) | 21.6 µM (inactive) | 35.4 µM (inactive) | 33.2 µM (inactive) | 48 µM (inactive) | 23.1 µM (inactive) | 50.1 µM (inactive) | 29 µM (inactive) | 31.8 µM (inactive) | 47.8 µM (inactive) | > 100 µM (inactive) | 3.55 µM (inactive) | 41.4 µM (inactive) | 20.4 µM (inactive) | 39.6 µM (inactive) | 34.2 µM (inactive)
CN1CN(c2ccccc2)C2(CCN(C(=O)OC(C)(C)C)CC2)C1=O | > 100 µM (inactive) | 32.4 µM (inactive) | > 100 µM (inactive) | > 100 µM (inactive) | > 100 µM (inactive) | > 100 µM (inactive) | > 100 µM (inactive) | > 100 µM (inactive) | > 100 µM (inactive) | > 100 µM (inactive) | > 100 µM (inactive) | > 100 µM (inactive) | > 100 µM (inactive) | > 100 µM (inactive) | > 100 µM (inactive) | > 100 µM (inactive) | > 100 µM (inactive) | 63.2 µM (inactive) | 57 µM (inactive) | > 100 µM (inactive)
COC1=C(OC)C(=O)c2cc(C)c(=O)c(C)cc2C1=O | 18.6 µM (inactive) | 16.4 µM (inactive) | 22.4 µM (inactive) | 10.4 µM (inactive) | 11.2 µM (inactive) | 7.94 µM (inactive) | 22.1 µM (inactive) | 11.2 µM (inactive) | 24.7 µM (inactive) | 17.1 µM (inactive) | 2.81 µM (inactive) | 22 µM (inactive) | 14.6 µM (inactive) | 17.3 µM (inactive) | 13.8 µM (inactive) | 1.8 µM (inactive) | 13.6 µM (inactive) | 15.3 µM (inactive) | 23.1 µM (inactive) | 17.9 µM (inactive)
Nc1cccc(CCN2CCN(CCCc3ccccc3)CC2)c1 | 70 µM (inactive) | 4.11 µM (inactive) | 15 µM (inactive) | 19.4 µM (inactive) | 18.1 µM (inactive) | 36.5 µM (inactive) | 13.7 µM (inactive) | 24.2 µM (inactive) | 25.4 µM (inactive) | 21 µM (inactive) | 95.3 µM (inactive) | > 100 µM (inactive) | 16.5 µM (inactive) | 53.3 µM (inactive) | 26.7 µM (inactive) | 18.6 µM (inactive) | 58.2 µM (inactive) | 21.2 µM (inactive) | 25.1 µM (inactive) | 19.2 µM (inactive)
NC1c2c(Cl)sc(Cl)c2C(=O)C1O (stereo not given) | > 100 µM (inactive) | 13.1 µM (inactive) | 17 µM (inactive) | 30.8 µM (inactive) | 23.4 µM (inactive) | 37.8 µM (inactive) | 19.7 µM (inactive) | 43.4 µM (inactive) | 46 µM (inactive) | 37.9 µM (inactive) | 15.8 µM (inactive) | > 100 µM (inactive) | 18.2 µM (inactive) | 24.4 µM (inactive) | 31.9 µM (inactive) | 42.2 µM (inactive) | 43.1 µM (inactive) | 12.8 µM (inactive) | 35.1 µM (inactive) | 18.9 µM (inactive)
CCC(C)C1NC(=O)C(NC(=O)c2c3nc4c(C(=O)NC5C(=O)NC(C(C)CC)C(=O)N6CCCC6C(=O)N(C)CC(=O)N(C)C(C(C)C)C(=O)OC5C)ccc(C)c4oc-3c(C)c(=O)c2N)C(C)OC(=O)C(C(C)C)N(C)C(=O)CN(C)C(=O)C2CCCN2C1=O (stereo not given) (I: TIP[Sar][NMeV] / II: TIP[Sar][NMeV]; ester I:1-I:C, II:1-II:C; linker I:N-II:N via Actinocin(1to9); configuration not given here) | 0.000889 µM (active) | 0.00255 µM (active) | 0.013 µM (active) | 0.00184 µM (active) | < 0.0001 µM (active) | 0.00561 µM (active) | < 0.0001 µM (active) | < 0.0001 µM (active) | < 0.0001 µM (active) | 0.000156 µM (active) | 0.000282 µM (active) | 0.0208 µM (active) | < 0.0001 µM (active) | 0.0059 µM (active) | 0.0204 µM (active) | 0.000539 µM (active) | 0.00322 µM (active) | 0.00394 µM (active) | 0.0065 µM (active) | < 0.0001 µM (active)
